This is an account of results in US20220175766A1, “COMPOSITIONS AND METHODS OF TREATMENT” (GB004, Inc., priority 2019, published 2022).

The nature of series [1]: Compound 1 pH-solubility at 22° C. Type of series: physicochemical. The settings on record: thermodynamic from solid. The source says:
The solubility of Compound 1 at various pH's was investigated.

The format of series [2] is physicochemical. How it is done:
Binary mixtures of Compound 1 HCl salt (prepared according to Example 2.1) and excipient were stored at 40° C. and 75% RH for 4 weeks and analysed at weekly intervals for appearance, moisture content (KF) and HPLC purity of Compound 1, with the excipients studied being microcrystalline cellulose, silicified microcrystalline cellulose, lactose, crospovidone, croscarmellose sodium, sodium starch glycolate, magnesium stearate, sodium stearyl fumarate, red iron oxide, blue #2, eudragit, polyvinylpyrrolidone, HPMC-AS, anhydrous citric acid and HPMC.

Series [3] in a line: Dispersion of Compound 1⋅HCl in stirred water with or without poloxamer 188. Type of series: physicochemical. The settings on record: 0.25 g in 50 mL water, in the presence of poloxamer 188 (0.25 g) vs without. How it is done: Compound 1⋅HCl (0.25 g) was added to each of two stirred beakers containing water (50 mL), one also containing poloxamer 188 (0.25 g). The dispersion of Compound 1 throughout the beaker was higher in the presence of Poloxamer 188.

As a reminder, the solubility is the concentration that dissolves in the medium under given conditions. Read a high solubility as a readily soluble substance.

SMILES strings stand for the structures. Read-outs that look alike come from different tables or passages of the source.

As to `CC(C)(C)OC(=O)N1CCN(Cc2ccn(Cc3ccc(Cl)cc3)c(=O)c2O)CC1.Cl` [Compound 1 HCl salt], the solubility was 600 µg/mL in series [1] (citrate buffer, aqueous buffer, pH 3 (Citrate 25 mM, l = 0.1), pH 3.0, 22° C.); 1810 µg/mL in series [1] (simulated gastric fluid, 0.1M HCl, pH 1.3, 22° C.); 550 µg/mL in series [1] (Water (1 mg/ml load), pH 3.1, 22° C.); 2070 µg/mL in series [1] (Water (5 mg/ml load), pH 2.2, 22° C.). Besides, in series [2] (40° C. and 75% RH for 4 weeks), the Stability on storage entry is recorded as “stable”. For the same molecule, the “Appearance of binary mixture” value in series [2] (binary mixture with citric acid, 40° C. and 75% RH, after 1 week) is “liquefied”. Besides, the “API purity by HPLC” value in series [2] (binary mixture with citric acid, 40° C. and 75% RH, after 4 weeks) stood at 34.1%. Further, the Total impurities amounted to 0.51% in series [2] (binary mixture with microcrystalline cellulose, 40° C. and 75% RH, after 4 weeks); 0.69% in series [2] (binary mixture with silicified microcrystalline cellulose, 40° C. and 75% RH, after 4 weeks). Also, in series [3], the “Dispersion of Compound 1 throughout the beaker” value was “higher”.
